DC50 and bioavailability data for 14 molecules are collected here from US20250059164A1, “IRAK DEGRADERS AND USES THEREOF” (Kymera Therapeutics, Inc., priority 2023, published 2025).

Bounds are passed on as bounds.

The target in one series is T1, IRAK4 (Homo sapiens, UniProt Q9NWZ3).
T1 construct: endogenous in cells; host or cells: OCI-LY10
T1 sequence (Q9NWZ3 1-460): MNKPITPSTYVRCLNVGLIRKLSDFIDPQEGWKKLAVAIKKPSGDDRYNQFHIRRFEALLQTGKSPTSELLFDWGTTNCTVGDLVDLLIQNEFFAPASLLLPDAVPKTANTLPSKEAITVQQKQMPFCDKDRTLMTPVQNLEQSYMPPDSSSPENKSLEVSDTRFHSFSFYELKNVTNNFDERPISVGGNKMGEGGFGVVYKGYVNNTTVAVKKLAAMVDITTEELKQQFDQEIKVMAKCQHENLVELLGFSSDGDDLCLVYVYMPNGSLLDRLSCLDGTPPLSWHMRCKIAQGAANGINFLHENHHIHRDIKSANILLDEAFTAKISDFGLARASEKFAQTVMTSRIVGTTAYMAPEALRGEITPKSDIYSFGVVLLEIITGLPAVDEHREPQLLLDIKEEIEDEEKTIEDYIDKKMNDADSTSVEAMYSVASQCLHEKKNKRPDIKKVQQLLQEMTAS
Kind of series: IRAK4 MSD degradation in OCI-LY10. Type of series: cell-based. The conditions noted are these: OCI-LY10 cells, 24 hrs, Meso Scale Discovery. A digest of the protocol: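 Remaining IRAK4 protein measured by Meso Scale Discovery electrochemiluminescence sandwich assay on lysates of OCI-LY10 cells. Cells were exposed for 4 to 24 hours (37° C., 5% CO2) to eight 1:3-diluted concentrations starting at 1 to 10 μM. DC50 derived by three-parameter logistic fitting.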

The nature of series [1]: Rodent pharmacokinetics (rat PK). Type of series: in vivo. The note with it: po, dosed intravenously or orally by gavage, plasma, read-out: F % (bioavailability). A digest of the protocol:
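F % is reported as a letter code: A for ≥5%, B for ≤5%. It was derived from rat plasma profiles after intravenous or oral gavage dosing, with jugular vein sampling from predose to 24 h (5 min point for IV only).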

A word on the DC50: it is the concentration giving 50% degradation. Broadly, the bioavailability is the share of a dose that reaches the circulation, judged against a reference dose that is usually intravenous.

In turn, `Cn1c(=O)n(C2CCC(=O)NC2=O)c2cccc(N3CCC4(CCN(C[C@H]5CC[C@H](n6cc7cc(NC(=O)c8cccc(C(F)(F)F)c8)ncc7n6)CC5)CC4(F)F)CC3)c21` (stereo partly shown) [I-141] gave a DC50 on IRAK4 of 10 to 100 nM. In addition, the bioavailability in series [1] is at most 5%.
In the case of `Cn1c(=O)n(C2CCC(=O)NC2=O)c2cccc([C@@H]3CCN(C[C@H]4CC[C@H](n5cc6cc(NC(=O)c7cncc(OC(F)F)n7)ccc6n5)CC4)C[C@H]3F)c21` (stereo partly shown) [I-339], the DC50 at IRAK4 is under 10 nM. The bioavailability in series [1] was at most 5%.
On IRAK4, `Cn1c(=O)n(C2CCC(=O)NC2=O)c2cccc(N3CCC(F)(CN4CCC(c5nc6cc(C(C)(C)O)c(NC(=O)c7cccc(C(F)(F)F)n7)cc6s5)CC4)CC3)c21` (stereo not shown) [I-191] yielded a half-maximal degradation concentration (DC50) of 10 to 100 nM. The bioavailability in series [1] is at most 5%.
In turn, `Cn1c(=O)n(C2CCC(=O)NC2=O)c2ccc(F)c([C@@H]3CCN(C[C@H]4CC[C@H](n5cc6cc(NC(=O)c7cncc(C#N)c7)c(C(C)(C)O)cc6n5)CC4)CC3(F)F)c21` (single isomer, unassigned) [I-226] came in with a DC50 at IRAK4 of under 10 nM. Also, the bioavailability in series [1] was at most 5%.
For the molecule `Cn1c(=O)n(C2CCC(=O)NC2=O)c2cccc(N3CC(OC[C@H]4CC[C@H](n5cc(NC(=O)c6cnn7ccc(N8C[C@H]9C[C@@H]8CO9)nc67)c(C(F)F)n5)CC4)C3)c21` (stereo partly shown) [I-256], the DC50 at IRAK4 is over 200 nM. The bioavailability in series [1] is at most 5%.
With `Cn1c(=O)n(C2CCC(=O)NC2=O)c2cccc([C@@H]3CCN(C[C@H]4CC[C@H](c5cn6cc(NC(=O)c7cncc(C(F)(F)F)n7)c(C(C)(C)O)cc6n5)CC4)C[C@H]3F)c21` (stereo partly shown) [I-343], the 50% degradation concentration (DC50) on IRAK4 is under 10 nM. Further, the bioavailability in series [1] was at most 5%.
In turn, `Cn1c(=O)n(C2CCC(=O)NC2=O)c2cccc([C@@H]3CCN(C[C@H]4CC[C@H](n5cc6cc(NC(=O)c7cncc(C(F)(F)F)n7)c(Cl)cc6n5)CC4)C[C@H]3F)c21` (stereo partly shown) [I-210] gave a DC50 on IRAK4 of under 10 nM. The bioavailability in series [1] was at most 5%.
As for `O=C1CCC(n2c(=O)oc3c([C@@H]4CCN(C[C@H]5CC[C@H](n6cc7cc(NC(=O)c8cncc(C(F)(F)F)n8)ccc7n6)CC5)C[C@H]4F)cccc32)C(=O)N1` (single isomer, unassigned) [I-357], on IRAK4, the half-maximal degradation concentration (DC50) is under 10 nM. The bioavailability in series [1] was at most 5%.
On to `CN(C[C@H]1CC[C@H](n2cc(NC(=O)c3cnn4cccnc34)c(C(F)F)n2)CC1)[C@@H]1CCN(c2cccc3c2n(C)c(=O)n3C2CCC(=O)NC2=O)C[C@H]1F` (single isomer, unassigned) [I-279], for which the DC50 at IRAK4 is under 10 nM. In addition, the bioavailability in series [1] was at least 5%.
As to `Cn1c(=O)n(C2CCC(=O)NC2=O)c2cccc([C@@H]3CCN(C[C@H]4CC[C@H](n5cc6cc(NC(=O)c7cncc(C(F)(F)F)n7)ncc6n5)CC4)C[C@H]3F)c21` (stereo partly shown) [I-156], at IRAK4, the DC50 was under 10 nM. Also, the bioavailability in series [1] was at most 5%.
Taken in the same sequence, the figures for `COc1cc2nn([C@H]3CC[C@H](CN4CCC5(CN(c6ccc(C7CCC(=O)NC7=O)c(Cl)c6)C5)C(F)(F)C4)CC3)cc2cc1NC(=O)c1cncc(C#N)c1` (stereo partly shown) [I-128] were 10 to 100 nM and at most 5%.
In turn, `CN(C[C@H]1CC[C@H](c2nc3cc(C(C)(C)O)c(NC(=O)c4cccc(C(F)(F)F)n4)cc3s2)CC1)[C@@H]1CCN(c2cccc3c2n(C)c(=O)n3C2CCC(=O)NC2=O)C[C@@H]1F` (single isomer, unassigned) [I-104] returned a 50% degradation concentration (DC50) at IRAK4 of under 10 nM. The bioavailability in series [1] is at least 5%.
Taken in the same sequence, the figures for `CN(C[C@H]1CC[C@H](c2nc3cc(C(C)(C)O)c(NC(=O)c4cccc(C(F)(F)F)n4)cc3o2)CC1)[C@@H]1CCN(c2cccc3c2n(C)c(=O)n3C2CCC(=O)NC2=O)C[C@H]1F` (stereo partly shown) [I-137] were under 10 nM and at least 5%.
In turn, `Cn1c(=O)n(C2CCC(=O)NC2=O)c2cccc([C@@H]3CCN(C[C@H]4CC[C@H](c5nc6cc(C(C)(C)O)c(NC(=O)c7cncc(C#N)c7)cc6s5)CC4)C[C@H]3F)c21` (single isomer, unassigned) [I-229] yielded a DC50 on IRAK4 of under 10 nM. Besides, the bioavailability in series [1] was at most 5%.
